Laboratory results published in patent publication US8859848B2, “Phloretin glycosyltransferases, polynucleotides encoding these and methods of use” (The New Zealand Institute for Plant and Food Research …, priority 2007, dated 2014).
Entries after “also recorded” stand apart in the source; their conditions may differ. Like-named read-outs stand apart in the source and are kept apart here.

T1: MpUGT88A1 (Malus domestica, UniProt B3TKC8)
T1 construct: The entire coding region of the MpUGT88A1 cDNA was cloned in frame into the expression vector pET30a(+); made in house; host or cells: E. coli BL21-Codon-Plus-RIL
T1 sequence (B3TKC8 1-483): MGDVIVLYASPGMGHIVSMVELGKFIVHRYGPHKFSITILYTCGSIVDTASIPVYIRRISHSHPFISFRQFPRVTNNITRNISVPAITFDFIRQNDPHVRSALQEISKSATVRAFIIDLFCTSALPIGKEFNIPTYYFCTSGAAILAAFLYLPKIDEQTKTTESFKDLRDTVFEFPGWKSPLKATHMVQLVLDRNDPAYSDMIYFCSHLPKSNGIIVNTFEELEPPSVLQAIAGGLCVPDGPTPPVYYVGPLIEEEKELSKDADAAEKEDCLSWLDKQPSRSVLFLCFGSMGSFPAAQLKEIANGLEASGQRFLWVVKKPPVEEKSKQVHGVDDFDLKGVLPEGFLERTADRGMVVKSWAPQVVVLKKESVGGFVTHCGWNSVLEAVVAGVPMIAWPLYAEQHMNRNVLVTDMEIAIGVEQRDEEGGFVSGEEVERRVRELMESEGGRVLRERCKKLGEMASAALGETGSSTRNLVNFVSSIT

B1: MpUGT88A1: Malus domestica uridine diphosphate glycosyltransferase; recombinant His6-tagged phloretin glycosyltransferase produced in E. coli (protein, listed as Malus domestica)
chain: T1 sequence (B3TKC8 1-483)
modifications: His6 tag
notes: Malus domestica uridine diphosphate glycosyltransferase; recombinant His6-tagged phloretin glycosyltransferase produced in E. coli
B2: Md—138221: variant phloretin glycosyltransferase polypeptide from Malus x domestica (protein, listed as Malus domestica)
chain: MGDVIVLYAAPGMGHVISMVELGKLILHRYGPHKFSITILYTCGSFFDTPSIPAYIRRISHSHPSISFRQFPRVTNKITQNISGTAIVVDFVRQNDPHVRRALQDISKSAVVRAFIIDLVCTSAMTISKEFDIPTYYFYTSGAAALGAFLYFPKIHEQTTQSFKDLTDTVIEFPGRKSPLKAIHMIEPLLDRDDPAYWDFLSFCSDLPKSKGIIVNTFEELEPPAVLHAIAEGLCVPDGPTSPVYYVGPLIDEEKVSGNDAAAAEEDCLSWLDKQPSRSVVFLCFGSRGSLPAIQLKEIAKALEASGQRFLWVVKKPPVDEKTKQVLGVDDFDLEGVLPEGFLERTKDRGMVVKSWAPQAEVLKKESVGGFVTHCGWNSVLEAVVAGVPMIAWPLYAEQHLNRNVMATDMEIAIAVEQRDEEDGFVSGEELERRVRELMESEEGRVLRERSKKIGEMAMAALGENGSSTRNLVNFVNSLT

Legend:
Type in all cases: biochemical
MpUGT88A1 [1] = target: T1, MpUGT88A1; test: UGT activity assay with [3H]-UDP-glucose, recombinant MpUGT88A1; settings: [3H]-UDP-glucose as sugar donor; 2 mM substrate; 30° C., 30 min
Description: UGT activity assays were performed in triplicate in 50 μl reactions using ˜1-2 μg of recombinant protein purified on His-Trap and G200 Superdex columns. […] Reactions were performed at 30° C. for 30 min and terminated by addition of 10 μL of 2 M HCl. The reaction mixtures were extracted twice with 100 μL of ethyl acetate and 20 μl of the organic phase were combined with 1 ml of non-aqueous scintillation fluid and analysed by liquid scintillation counting (Tri-Carb 2900TR, PerkinElmer, Boston, Mass., USA). Boiled enzyme and pET30a(+) vector controls were run in parallel with all enzyme reactions. […]
Fifteen substrates (caffeic acid, catechin, chlorogenic acid, 2-coumaric acid, 3-coumaric acid, 4-coumaric acid, cyanidin, 3-(3,4 dihydroxyphenyl) propionic acid, epicatechin, 3-hydroxybenzoic acid, naringenin, phloretin, protocatechuic acid, quercetin and rutin) that are natural constituents of apple fruit or commonly available phenolic compounds were screened for activity.

MpUGT88A1 [2] = target: T1, MpUGT88A1; settings: 2 μM phloretin; for inhibition of enzyme activity by divalent cations: 25 mM
Description: (§1) UGT activity assays were performed in triplicate in 50 μl reactions using ˜1-2 μg of recombinant protein purified on His-Trap and G200 Superdex columns. […] Reactions were performed at 30° C. for 30 min and terminated by addition of 10 μL of 2 M HCl. The reaction mixtures were extracted twice with 100 μL of ethyl acetate and 20 μl of the organic phase were combined with 1 ml of non-aqueous scintillation fluid and analysed by liquid scintillation counting (Tri-Carb 2900TR, PerkinElmer, Boston, Mass., USA). Boiled enzyme and pET30a(+) vector controls were run in parallel with all enzyme reactions.
(§2) The effect on UGT activity of different pH (5-10), temperature (15-50° C.) and ionic strength of monovalent (Na^+, 0-100 mM; K^+, 0-10 mM) and divalent ions ([…] or Mn^2+, 0-25 mM) was determined as described above using 2 μM phloretin.

MpUGT88A1 [3] = target: T1, MpUGT88A1; settings: 10 μM phloretin, 250 μM UDP-sugar, 16 h
[4] = Effect of pH and temperature on UGT activity of MpUGT88A1 towards phloretin; settings: 2 μM phloretin
Description: as §1, §2

[5] = Phloretin glycosyl transferase activity assay of recombinant Md—138221; settings: recombinant protein from E. coli
Description: as §1

Molecule | utilised by MpUGT88A1 as an acceptor (substrate screen) (MpUGT88A1 [1]) | further results
catechin | only phloretin was utilised | –
O=C(O)CCc1ccc(O)c(O)c1 [3-(3,4 dihydroxyphenyl) propionic acid] | only phloretin was utilised | –
O=C(O)/C=C/c1ccccc1O [2-coumaric acid] | only phloretin was utilised | –
[Mn+2] [Mn^2+] | – | inhibition of enzyme activity by divalent cations (MpUGT88A1 [2]): not inhibited
O=C(CCc1ccc(O)cc1)c1c(O)cc(O)cc1O [phloretin] | only phloretin was utilised | –
O=C(O)/C=C/c1ccc(O)cc1 [4-coumaric acid] | only phloretin was utilised | –
O=C(O)/C=C/c1ccc(O)c(O)c1 [caffeic acid] | only phloretin was utilised | –
[Na+] [Na^+] | – | inhibition of enzyme activity by monovalent cation (MpUGT88A1 [2]; 100 mM): not inhibited
O=C(O)c1ccc(O)c(O)c1 [protocatechuic acid] | only phloretin was utilised | –
O=C(O)c1cccc(O)c1 [3-hydroxybenzoic acid] | only phloretin was utilised | –
O=c1c(O)c(-c2ccc(O)c(O)c2)oc2cc(O)cc(O)c12 [quercetin] | only phloretin was utilised; also recorded: not utilised as substrates | –
O=c1ccn([C@@H]2O[C@H](COP(=O)(O)OP(=O)(O)O[C@H]3OC[C@@H](O)[C@H](O)[C@H]3O)[C@@H](O)[C@H]2O)c(=O)[nH]1 [UDP-xylose] | – | glycosylated product formation with phloretin and activated sugar donor (HPLC/LC-MS) (MpUGT88A1 [3]): a single glycosylated product was formed
[Mg+2] [Mg^2+] | – | inhibition of enzyme activity by divalent cations (MpUGT88A1 [2]): not inhibited
O=C(/C=C/c1ccc(O)c(O)c1)O[C@@H]1C[C@](O)(C(=O)O)C[C@@H](O)[C@H]1O [chlorogenic acid] | only phloretin was utilised | –
O=C(O)/C=C/c1cccc(O)c1 [3-coumaric acid] | only phloretin was utilised | –
[K+] [K^+] | – | inhibition of enzyme activity by monovalent cation (MpUGT88A1 [2]; 10 mM): not inhibited
O=C1C[C@@H](c2ccc(O)cc2)Oc2cc(O)cc(O)c21 [naringenin] | only phloretin was utilised; also recorded: not utilised as substrates | –
B1 | – | pH range of significant activity ([4]; pH range 5-10): 7-8; pH of maximum activity ([4]; pH range 5-10, 50 mM Tris-HCl): 7.7; activity at pH 5 and 10 ([4]; relative to maximum): less than 5%; activity at pH 6 and 9 ([4]; relative to maximum): 20%; temperature of maximum activity ([4]; standard conditions): 25 °C; temperature range of activity ([4]; standard conditions): 15-50 °C
B2 | – | phloretin glycosyltransferase activity relative to that shown for MpUGT88A1 [5]: approximately 3%
